Read-outs that look alike come from different tables or passages of the source.
Experiments:
HepG2 cells = assay: In-vitro cytotoxicity by the MTT method, HepG2 cells; conditions: 24 hrs
Experimental: (§1) The in-vitro cytotoxicity of Compounds 1, 12, and 17 was evaluated by the MTT method. HepG2, HEK293 and A549 cells in logarithmic growth phase were respectively trypsinized into a cell suspension. The cell density was adjusted to 5×10^4 cells/mL. 180 μL per well of the cell suspension was inoculated into a sterile 96-well plate at 37° C., and cultured in an incubator at 5% CO2 for 24 hrs. After the cells were attached to the bottom of the plate, 20 μL of the drug solutions over the concentration gradients were respectively added into each well, and 6 replicate wells were set in parallel. Also, a blank group (group without cells and drug) and a control group (group without drug) were set. The system was incubated in an incubator at 37° C. and 5% CO2 for 24 hrs, and then 20 μL per well of a 5 g/L MTT solution was added and incubated for another 4 hrs. After the incubation was completed, the culture medium in the well was gently aspirated, and 100 μL of DMSO was added to each well. Then the crystal was fully dissolved in a shaker for 10 min at a low speed. After that, the absorbency of each well was measured at OD490 nm in an enzymelinked immunodetector, and the survival rate of cells was calculated.

HEK293 cells = assay: In-vitro cytotoxicity by the MTT method, HEK293 cells; conditions: 24 hrs
Experimental: as §1

SARS-CoV-2 3CL^pro = SARS-CoV-2 3CL^pro (Severe acute respiratory syndrome coronavirus 2 (2019-nCoV) (SARS-CoV-2), UniProt P0DTD1); assay: biochemical; conditions: for IC50: FRET
A549 cells = assay: In-vitro cytotoxicity by the MTT method, A549 cells; conditions: 24 hrs
Experimental: as §1

[1] = class symbols, read-out: IC50 (nM), inhibitory activity against 3CL^pro
[2] = non-linear regression, read-out: IC50 against 3CL^pro

## Cn1cc2cc(/N=c3\[nH]c(=O)n(Cc4nnn[nH]4)c(=O)n3Cc3ccc(F)cc3)c(Cl)cc2n1 [Compound 12]
HepG2 cells; 1.5625 nM
  Survival rate of HepG2 cells: 96.16%
HepG2 cells; 3.125 nM
  Survival rate of HepG2 cells: 94.78%
HepG2 cells; 6.25 nM
  Survival rate of HepG2 cells: 93.92%
HepG2 cells; 12.5 nM
  Survival rate of HepG2 cells: 91.45%
HepG2 cells; 25 nM
  Survival rate of HepG2 cells: 88.16%
HepG2 cells; 50 nM
  Survival rate of HepG2 cells: 87.52%
HepG2 cells; 100 nM
  Survival rate of HepG2 cells: 83.43%
HepG2 cells; 200 nM
  Survival rate of HepG2 cells: 82.56%
HepG2 cells; 400 nM
  Survival rate of HepG2 cells: 77.32%
HEK293 cells; 1.5625 nM
  Survival rate of HEK293 cells: 93.44%
HEK293 cells; 3.125 nM
  Survival rate of HEK293 cells: 92.73%
HEK293 cells; 6.25 nM
  Survival rate of HEK293 cells: 91.16%
HEK293 cells; 12.5 nM
  Survival rate of HEK293 cells: 89.80%
HEK293 cells; 25 nM
  Survival rate of HEK293 cells: 85.34%
HEK293 cells; 50 nM
  Survival rate of HEK293 cells: 82.99%
HEK293 cells; 100 nM
  Survival rate of HEK293 cells: 82.76%
HEK293 cells; 200 nM
  Survival rate of HEK293 cells: 78.93%
HEK293 cells; 400 nM
  Survival rate of HEK293 cells: 77.46%
SARS-CoV-2 3CL^pro; [1]
  IC50: < 200 nM
SARS-CoV-2 3CL^pro; [2]
  IC50: 184 nM
SARS-CoV-2 3CL^pro; concentration 0.1 nM, read-out: inhibition percentage of 3CL^pro
  inhibition at 0.0001 µM: 0.52%
SARS-CoV-2 3CL^pro; concentration 1 nM, read-out: inhibition percentage of 3CL^pro
  inhibition at 0.001 µM: 1.86%
SARS-CoV-2 3CL^pro; concentration 5 nM, read-out: inhibition percentage of 3CL^pro
  inhibition at 0.005 µM: 4.98%
SARS-CoV-2 3CL^pro; concentration 10 nM, read-out: inhibition percentage of 3CL^pro
  inhibition at 0.01 µM: 7.28%
SARS-CoV-2 3CL^pro; concentration 20 nM, read-out: inhibition percentage of 3CL^pro
  inhibition at 0.02 µM: 9.3%
SARS-CoV-2 3CL^pro; concentration 30 nM, read-out: inhibition percentage of 3CL^pro
  inhibition at 0.03 µM: 12.3%
SARS-CoV-2 3CL^pro; concentration 50 nM, read-out: inhibition percentage of 3CL^pro
  inhibition at 0.05 µM: 18.8%
SARS-CoV-2 3CL^pro; concentration 100 nM, read-out: inhibition percentage of 3CL^pro
  inhibition at 0.1 µM: 40%
SARS-CoV-2 3CL^pro; concentration 500 nM, read-out: inhibition percentage of 3CL^pro
  inhibition at 0.5 µM: 70.2%
SARS-CoV-2 3CL^pro; concentration 1000 nM, read-out: inhibition percentage of 3CL^pro
  inhibition at 1 µM: 85.4%
A549 cells; 1.5625 nM
  Survival rate of A549 cells: 98.43%
A549 cells; 3.125 nM
  Survival rate of A549 cells: 96.76%
A549 cells; 6.25 nM
  Survival rate of A549 cells: 96.86%
A549 cells; 12.5 nM
  Survival rate of A549 cells: 96.42%
A549 cells; 25 nM
  Survival rate of A549 cells: 95.19%
A549 cells; 50 nM
  Survival rate of A549 cells: 93.96%
A549 cells; 100 nM
  Survival rate of A549 cells: 93.51%
A549 cells; 200 nM
  Survival rate of A549 cells: 92.13%
A549 cells; 400 nM
  Survival rate of A549 cells: 89.12%

## Cc1cc(C)cc(Cn2c(=O)n(Cc3nnn[nH]3)c(=O)[nH]/c2=N\c2cc3cn(C)nc3cc2Cl)c1 [Compound 13]
SARS-CoV-2 3CL^pro; [1]
  IC50: 500 to 1000 nM

## COc1cc(Cn2c(=O)n(Cc3nnn[nH]3)c(=O)[nH]/c2=N\c2cc3cn(C)nc3cc2Cl)cc(OC)c1 [Compound 14]
SARS-CoV-2 3CL^pro; [1]
  IC50: 500 to 1000 nM

## Cn1cc2cc(/N=c3\[nH]c(=O)n(Cc4nnn[nH]4)c(=O)n3Cc3cc(F)cc(F)c3)c(Cl)cc2n1 [Compound 15]
SARS-CoV-2 3CL^pro; [1]
  IC50: < 200 nM
SARS-CoV-2 3CL^pro; [2]
  IC50: < 200 nM

## Cn1cc2cc(/N=c3\[nH]c(=O)n(Cc4nnnn4C)c(=O)n3Cc3cc(F)c(F)cc3F)c(Cl)cc2n1 [Compound 16]
SARS-CoV-2 3CL^pro; [1]
  IC50: < 200 nM
SARS-CoV-2 3CL^pro; [2]
  IC50: < 200 nM

## CCn1nnnc1Cn1c(=O)[nH]/c(=N\c2cc3cn(C)nc3cc2Cl)n(Cc2ccc(C(F)(F)F)cc2)c1=O [Compound 18]
SARS-CoV-2 3CL^pro; [1]
  IC50: 200 to 500 nM

## CCn1nnnc1Cn1c(=O)[nH]/c(=N\c2ccc3nn(C)cc3c2)n(Cc2ccc([N+](=O)[O-])cc2)c1=O [Compound 19]
SARS-CoV-2 3CL^pro; [1]
  IC50: 200 to 500 nM

## CCn1nnnc1Cn1c(=O)[nH]/c(=N\c2cc3cn(C)nc3cc2Cl)n(Cc2ccc(Cl)cc2)c1=O [Compound 20]
SARS-CoV-2 3CL^pro; [1]
  IC50: 200 to 500 nM

## Cn1cc2cc(/N=c3\[nH]c(=O)n(Cc4nnnn4C4CC4)c(=O)n3Cc3cc(F)c(F)cc3F)c(Cl)cc2n1 [Compound 21]
SARS-CoV-2 3CL^pro; [1]
  IC50: 200 to 500 nM

## CC(C)n1nnnc1Cn1c(=O)[nH]/c(=N\c2cc3cn(C)nc3cc2Cl)n(Cc2cc(F)c(F)cc2F)c1=O [Compound 22]
SARS-CoV-2 3CL^pro; [1]
  IC50: 200 to 500 nM

## Cn1cc2cc(/N=c3\[nH]c(=O)n(Cc4nnnn4C4CCC4)c(=O)n3Cc3cc(F)c(F)cc3F)c(Cl)cc2n1 [Compound 23]
SARS-CoV-2 3CL^pro; [1]
  IC50: 500 to 1000 nM

## CC(C)Cn1nnnc1Cn1c(=O)[nH]/c(=N\c2cc3cn(C)nc3cc2Cl)n(Cc2cc(F)c(F)cc2F)c1=O [Compound 24]
SARS-CoV-2 3CL^pro; [1]
  IC50: > 1000 nM
